Source: US9334285B2, “Aldosterone synthase inhibitors” (Boehringer Ingelheim International GmbH, priority 2014, dated 2016)
Read-outs that look alike come from different tables or passages of the source.

Columns and labels:
[1] = biological target: cortisol synthase (CYP11B1) (Macaca fascicularis, UniProt A0A2K5ULY1); test: Inhibition of cortisol synthesis, cynomolgus adrenal mitochondria, 11-deoxycortisol as substrate; type: biochemical, cynomolgus monkey; conditions: 150 units of CYP11B1, 11-deoxycortisol as substrate
Procedure: The aldosterone synthase and cortisol synthase inhibition assays employ cynomolgus adrenal gland mitochondria as the source of aldosterone synthase (CYP11B2) and cortisol synthase (CYP11B1). Mitochondria are prepared from frozen cynomolgus monkey adrenal glands according to Method A described in by J. D. McGarry et al. (Biochem. J., 1983, 214, 21-28), with a final resuspension in the AT buffer described in R. Yamaguchi et al. (Cell Death and Differentiation, 2007, 14, 616-624), frozen as aliquots in liquid nitrogen and stored at −80° C. until use. One unit of CYP11B2 and CYP11B1 activity in these preparations is defined as the amount of enzyme that generates 1 pmol of product in one hour under the conditions described.
Assays are performed as for aldosterone synthase except for the use of 150 units of CYP11B1, 11-deoxycortisol as substrate and cortisol measured as product.

[2] = biological target: T1, rhCYP17A1 (Homo sapiens, UniProt P05093); test: Inhibition of CYP17A1, progesterone to 17-α-hydroxyprogesterone, mass spectrometry; type: biochemical
T1 construct: purchased Cypex
T1 sequence (P05093 1-508): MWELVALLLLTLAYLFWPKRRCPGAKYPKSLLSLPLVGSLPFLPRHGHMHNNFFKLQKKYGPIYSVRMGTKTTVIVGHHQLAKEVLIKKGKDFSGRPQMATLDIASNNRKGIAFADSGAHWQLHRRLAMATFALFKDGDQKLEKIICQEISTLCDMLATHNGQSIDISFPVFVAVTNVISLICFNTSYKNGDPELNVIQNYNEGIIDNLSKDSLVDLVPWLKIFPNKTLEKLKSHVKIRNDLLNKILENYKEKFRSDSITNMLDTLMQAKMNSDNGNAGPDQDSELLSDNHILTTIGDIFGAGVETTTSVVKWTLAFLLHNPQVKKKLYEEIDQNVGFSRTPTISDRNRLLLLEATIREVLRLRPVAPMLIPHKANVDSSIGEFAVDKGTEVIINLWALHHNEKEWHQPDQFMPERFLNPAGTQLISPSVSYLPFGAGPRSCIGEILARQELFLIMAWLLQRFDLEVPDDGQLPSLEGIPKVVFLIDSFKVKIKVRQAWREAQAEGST
Procedure: Compounds of the invention may also be evaluated for inhibition of CYP17A1 via the following assay:
Reactions are started by the addition of NADPH to 1 mM and allowed to proceed for 15 minutes at 37° C. Reactions are terminated by the addition of 40 μL of MeCN containing an internal standard for mass spectrometry. The plates are centrifuged at 3000 rpm for 5 min and the reaction product 17-α-hydroxyprogesterone is quantified by mass spectrometry. To determine the assay blank value (0% activity), NADPH is omitted from some reactions.
(§1) Dose dependent inhibition is quantified by the inclusion of compound at various concentrations. Maximum activity (100%) is defined by reactions containing NADPH, but without compound.

[3] = biological target: T2, CYP19A1 (Homo sapiens, UniProt P11511); test: Inhibition of CYP19A1 (Kragie et al.); type: biochemical; conditions: read-out: CYP19A1 IC50
T2 sequence (P11511 1-503): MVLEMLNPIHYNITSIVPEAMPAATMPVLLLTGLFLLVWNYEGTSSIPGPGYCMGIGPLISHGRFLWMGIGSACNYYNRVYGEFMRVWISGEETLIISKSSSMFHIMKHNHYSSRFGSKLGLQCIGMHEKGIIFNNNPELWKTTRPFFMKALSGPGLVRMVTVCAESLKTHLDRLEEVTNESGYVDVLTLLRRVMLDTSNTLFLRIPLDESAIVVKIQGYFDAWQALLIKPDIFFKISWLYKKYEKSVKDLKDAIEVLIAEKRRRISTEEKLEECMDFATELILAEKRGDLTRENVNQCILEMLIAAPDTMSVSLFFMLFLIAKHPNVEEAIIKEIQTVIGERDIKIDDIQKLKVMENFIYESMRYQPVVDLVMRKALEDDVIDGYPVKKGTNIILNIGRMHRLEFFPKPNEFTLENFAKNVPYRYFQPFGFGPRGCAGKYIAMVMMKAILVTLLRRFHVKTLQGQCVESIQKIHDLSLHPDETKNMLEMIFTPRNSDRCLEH

[4] = biological target: T3, aldosterone synthase (CYP11B2) (Macaca fascicularis, UniProt A0A2K5UPL9); test: Inhibition of aldosterone synthase, cynomolgus adrenal mitochondria, aldosterone quantified by mass spectrometry; type: biochemical, cynomolgus monkey; conditions: 2 μM corticosterone, 90 minutes at 37° C.
T3 construct: employ cynomolgus adrenal gland mitochondria as the source of aldosterone synthase (CYP11B2); from tissue; host or cells: cynomolgus monkey adrenal gland mitochondria
T3 sequence (A0A2K5UPL9 1-503): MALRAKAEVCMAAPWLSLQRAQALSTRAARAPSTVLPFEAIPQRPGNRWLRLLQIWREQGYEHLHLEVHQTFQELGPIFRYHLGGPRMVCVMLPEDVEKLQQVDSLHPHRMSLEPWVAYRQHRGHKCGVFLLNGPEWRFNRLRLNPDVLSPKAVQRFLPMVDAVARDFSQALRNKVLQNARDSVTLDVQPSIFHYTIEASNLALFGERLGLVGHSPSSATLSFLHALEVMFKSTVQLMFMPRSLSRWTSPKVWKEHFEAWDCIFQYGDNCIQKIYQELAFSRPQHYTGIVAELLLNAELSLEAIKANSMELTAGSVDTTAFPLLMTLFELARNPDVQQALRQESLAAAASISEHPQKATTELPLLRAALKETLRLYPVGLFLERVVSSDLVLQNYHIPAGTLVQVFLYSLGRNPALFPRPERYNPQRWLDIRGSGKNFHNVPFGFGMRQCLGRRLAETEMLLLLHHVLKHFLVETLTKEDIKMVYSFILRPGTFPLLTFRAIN
Procedure: The aldosterone synthase and cortisol synthase inhibition assays employ cynomolgus adrenal gland mitochondria as the source of aldosterone synthase (CYP11B2) and cortisol synthase (CYP11B1). […] One unit of CYP11B2 and CYP11B1 activity in these preparations is defined as the amount of enzyme that generates 1 pmol of product in one hour under the conditions described.
The compounds of the invention may be evaluated for aldosterone synthase inhibition by the following assay:
Assays are performed in 96-well format in a final volume of 60 microL/well, containing 100 mM potassium phosphate, pH 7.4, 1% (v/v) DMSO, and additionally, 2 μM of corticosterone and 50 units of CYP11B2 activity. Reactions are started by the addition of NADPH to 1 mM and allowed to proceed for 90 minutes at 37° C. Reactions are terminated by the addition of 60 μL of MeCN containing an internal standard for mass spectrometry. One hundred microliters are then transferred to a glass filter plate and centrifuged at 570×g for 5 minutes and the filtrate is collected. Reaction product aldosterone is quantified by mass spectrometry. To determine the assay blank value (0% activity), NADPH is omitted from some reactions.
as §1

[5] = cynomolgus adrenal mitochondria, read-out: Cortisol Inhibition IC50
[6] = rhCYP17A1, 150 nM progesterone, 15 minutes at 37° C.; read-out: CYP17A1 IC50
[7] = Cortisol Inhibition IC50, cynomolgus adrenal mitochondria

Row | SMILES | IC50 [1, 5] [µM] | IC50 [2, 6] [µM] | IC50 [3] [µM] | IC50 [4] [µM] | IC50 [1, 7] [µM] | IC50 ([2]; read-out: CYP17A1 IC50; rhCYP17A1, 150 nM progesterone, 15 minutes at 37° C.) [µM]
1 | CC1Cc2ncn(-c3ccc(C#N)cc3)c2C(=O)O1 (single isomer, unassigned) [Compound 16B, 4[6-methyl-4-oxo-3H,4H,6H,7H-pyrano[3,4-d]imidazol-3-yl]benzonitrile] | 35 | > 20 | > 20 | 0.16 |  | 
2 | CC1(C)Cc2ncn(-c3ccc(C#N)cc3Cl)c2C(=O)O1 [Compound 18, 3-chloro-4-{6,6-dimethyl-4-oxo-3H,4H,6H,7H-pyrano[3,4-d]imidazol-3-yl}benzonitrile] | 4.1 | > 20 | > 20 | 0.017 |  | 
3 | Cc1cc(-n2cnc3c2C(=O)OC(C)(CO)C3)ccc1C#N (single isomer, unassigned) [Compound 39A, 4-[6-(hydroxymethyl)-6-methyl-4-oxo-3H,4H,6H,7H-pyrano[3,4-d]imidazol-3-yl]-2-methylbenzonitrile] |  | > 20 | > 20 | 0.011 | 1.4 | 
4 | CC1(C)Cc2ncn(-c3ccc(C#N)cc3)c2C(=O)O1 [Compound 3, 4-{6,6-dimethyl-4-oxo-3H,4H,6H,7H-pyrano[3,4-d]imidazol-3-yl}benzonitrile] | 8.7 | > 20 | > 20 | 0.035 |  | 
5 | CC1(CO)Cc2ncn(-c3ccc(Cl)c(Cl)c3)c2C(=O)O1 (single isomer, unassigned) [Compound 30A, 3-(3,4-dichlorophenyl)-6-(hydroxymethyl)-6-methyl-3H,4H,6H,7H-pyrano[3,4-d]imidazol-4-one] | 9 | > 20 | > 20 | 0.028 |  | 
6 | CC1(C(=O)O)Cc2ncn(-c3ccc(C#N)c(Cl)c3)c2C(=O)O1 (stereo not drawn) [Compound 44, 3-(3-Chloro-4-cyano-phenyl)-6-methyl-4-oxo-3,4,6,7-tetrahydro-pyrano[3,4-d]imidazole-6-carboxylic acid] |  | > 20 | > 20 | 0.67 | > 30 | 
7 | Cc1cc(-n2cnc3c2C(=O)OC(C)(C)C3)ccc1C#N [Compound 11, 4-{6,6-dimethyl-4-oxo-3H,4H,6H,7H-pyrano[3,4-d]imidazol-3-yl}-2-methylbenzonitrile] | 0.59 | > 20 | > 20 | 0.0049 |  | 
8 | N#Cc1ccc(-n2cnc3c2C(=O)OC(CO)C3)cc1Cl (single isomer, unassigned) [Compound 33B, 2-chloro-4-[6-(hydroxymethyl)-4-oxo-3H,4H,6H,7H-pyrano[3,4-d]imidazol-3-yl]benzonitrile] |  |  | > 20 | 0.027 | 14 | > 20
9 | C[C@@]1(CO)Cc2ncn(-c3ccc(C#N)c(Cl)c3)c2C(=O)O1 (single isomer, unassigned) [Compound 29B] |  | > 20 | > 20 | 0.048 | 23 | 
10 | CC1(CO)Cc2ncn(-c3ccc4c(c3)CCO4)c2C(=O)O1 (single isomer, unassigned) [Compound 42B, 3-(2,3-Dihydro-benzofuran-5-yl)-6-hydroxymethyl-6-methyl-6,7-dihydro-3H-pyrano[3,4-d]imidazol-4-one] | > 30 | > 20 | > 20 | 0.076 |  | 
11 | CC1(C)Cc2ncn(-c3ccc(Cl)cc3)c2C(=O)O1 [Compound 9, 3-(4-chlorophenyl)-6,6-dimethyl-3H,4H,6H,7H-pyrano[3,4-d]imidazol-4-one] | 2.4 | > 20 | > 20 | 0.032 |  | 
12 | CC1(C)Cc2ncn(-c3cccc(Cl)c3F)c2C(=O)O1 [Compound 8, 3-(3-chloro-2-fluorophenyl)-6,6-dimethyl-3H,4H,6H,7H-pyrano[3,4-d]imidazol-4-one] | 5.3 | > 20 | > 20 | 0.035 |  | 
13 | CC1(C)Cc2ncn([C@H]3CC[C@H](C#N)CC3)c2C(=O)O1 [Compound 28, trans-4-(6,6-Dimethyl-4-oxo-6,7-dihydro-4H-pyrano[3,4-d]imidazol-3-yl)-cyclohexanecarbonitrile] | 16 | > 20 | > 20 | 0.075 |  | 
14 | CN1C(=O)CCc2cc(-n3cnc4c3C(=O)OC(C)(C)C4)ccc21 [Compound 5, 6-{6,6-dimethyl-4-oxo-3H,4H,6H,7H-pyrano[3,4-d]imidazol-3-yl}-1-methyl-1,2,3,4-tetrahydroquinolin-2-one] | 40 | > 20 | > 20 | 0.11 |  | 
15 | C[C@]1(CO)Cc2ncn(-c3ccc(C#N)c(Cl)c3)c2C(=O)O1 (single isomer, unassigned) [Compound 29A] |  | > 20 | > 20 | 0.016 | 4.7 | 
16 | CC1(CO)Cc2ncn(-c3ccc(Cl)c(Cl)c3)c2C(=O)O1 (single isomer, unassigned) [Compound 30B, 3-(3,4-dichlorophenyl)-6-(hydroxymethyl)-6-methyl-3H,4H,6H,7H-pyrano[3,4-d]imidazol-4-one] | 5.2 | > 20 | > 20 | 0.031 |  | 
17 | N#Cc1ccc(-n2cnc3c2C(=O)OCC3)cc1Cl [Compound 22, 2-chloro-4-{4-oxo-3H,4H,6H,7H-pyrano[3,4-d]imidazol-3-yl}benzonitrile] |  |  |  | 0.025 | 18 | 
